Where two headings read alike, the source gives them in different places. Ends that are not written are not given here.
Tests used:
[1] = molecular target: T1, GalNAc-T2 lectin domain (T2ld) (Homo sapiens, UniProt Q10471); assay: Direct binding ELISA to GalNAc-MUC1 glycopeptide, competitive inhibition, T2ld
T1 construct: made in house; host or cells: High Five insect cells (baculovirus, pAcGP67-A)
T1 sequence (Q10471 408-571): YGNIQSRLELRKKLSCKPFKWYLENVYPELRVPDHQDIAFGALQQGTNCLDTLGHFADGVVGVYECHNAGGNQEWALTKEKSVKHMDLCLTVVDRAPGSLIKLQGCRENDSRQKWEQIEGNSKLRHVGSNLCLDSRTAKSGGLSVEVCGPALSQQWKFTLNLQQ
Experimental: (§1) Protein biotinylation was made as previously reported^62. The pH of 1 ml purified protein (0.3 mg/ml) in PBS was adjusted to pH 9 with 1 M NaOH and 40 μl N-hydroxy-succinimidobiotin (Sigma) dissolved in DMF (10 mg/ml) was added. The solution was mixed end-over-end for 2 hours at room temperature, and dialyzed three times against PBS and an equal volume of glycerol was added. The biotinylated proteins were stored at −20° C. in 50% glycerol until use.
(§2) Direct binding ELISA assay was developed as follows: Polystyrene microtiter plates (Maxisorb, Nunc, Denmark) were coated with peptides or enzymatically glycosylated glycopeptides in PBS overnight at 4° C. Plates were washed and blocked with 0.1% Tween20 and 0.2% BSA in PBS for 1 h at room temperature, followed by incubation with biotinylated proteins in PBS with 0.05% Tween20 for 2 h at room temperature. After four washes with PBS, plates were incubated with 1:2,000 dilution streptavidin-HRP (Sigma) in PBS for 30 min at room temperature and washed four times with PBS. Development was performed with 0.5 mg/ml o-phenylenediamine and 0.02% H2O2 at room temperature for 15 min, and reaction stopped by adding 100 μl/well of 0.5 N H2SO4. Competitive inhibition assays were done at end-point titers of GalNAc-transferase proteins with one hour preincubations with inhibitor.
(§3) In binding studies using lectins without biotinylation antibodies to the HIS-tag and the T7-tag, or in some experiments antibodies raised to GalNAc-T2 and -T4 enzymes were used to detect binding.

[2] = molecular target: T2, secreted soluble GalNAc-T2 (sT2) (Homo sapiens, UniProt Q10471); assay: Direct binding ELISA to GalNAc-MUC1 glycopeptide, competitive inhibition, sT2; conditions: read-out: Concentration required for 50% inhibition (IC50), sT2
T2 construct: HIS-tagged secreted human GalNAc-T2 and -T4 were prepared from pAC-GP67-T2-sol and pAC-GP67-T4-sol cDNA; 6xHis (N); thrombin cleavage site (N); T7 tag (N); made in house; host or cells: High Five insect cells (baculovirus)
Experimental: as §1, §2, §3

[3] = molecular target: T3, GalNAc-T4 lectin domain (T4ld) (Homo sapiens, UniProt Q8N4A0); assay: Direct binding ELISA to GalNAc-MUC1 glycopeptide, competitive inhibition, T4ld
T3 construct: made in house; host or cells: High Five insect cells (baculovirus, pAcGP67-A)
Experimental: as §1, §2, §3

[4] = molecular target: T4, secreted soluble GalNAc-T4 (sT4) (Homo sapiens, UniProt Q8N4A0); assay: Direct binding ELISA to GalNAc-MUC1 glycopeptide, competitive inhibition, sT4; conditions: binding to GalNAc-MUC1 glycopeptide
T4 construct: using the GalNAc-T4-sol construct that encodes residues 32-578 inserted into pT7T3U19; 6xHis (N); thrombin cleavage site (N); T7 tag (N); made in house; host or cells: High Five insect cells (baculovirus)
Experimental: as §1, §2, §3

[5] = molecular target: Helix Pomatia lectin (HPA) (Helix pomatia, UniProt Q2F1K8); assay: Direct binding ELISA, competitive inhibition, Helix Pomatia lectin control; conditions: read-out: Concentration required for 50% inhibition (IC50), HPA; control plant lectin
Text: Glycopeptides were purified by C-18 reverse phase HPLC. Peptides were custom synthesized by Neosystems (Strasbourg). Biotinylated Helix Pomatia lectin (HPA) was from KemEnTec (Denmark). Anti-MUC1 HMFG2 monoclonal antibody was a generous gift from Joyce Taylor-Papadimitriou. Anti-MUC1 SE5 monoclonal antibody was developed by immunizing Balb/c mice with 60-mer MUC1 tandem repeat peptide glycosylated with 5 moles GalNAc per repeat. Monoclonal antibodies to the lectin domains of human GalNAc-T2 and -T4 were developed as previously described^8, 63.
as §2
Inhibition experiments were used to further define the binding specificity of GalNAc-T2 and -T4 secreted soluble enzymes as well as lectin domains compared to Helix Pomatia lectin (Table VII).

GalNAc-T2 = molecular target: T5, GalNAc-T2 (Homo sapiens, UniProt Q10471); assay: GalNAc-T2 transferase activities with UDP-GalNAc or UDP-Gal donor (Muc2 acceptor, peptide panel); format: biochemical; conditions: peptide as acceptor substrate
T5 construct: Soluble, secreted expression constructs of human GalNAc-transferases GalNAc-T1, -T2, -T3, -T4, -T6, -T7, and -T11; made in house; host or cells: insect cells (baculovirus)
Experimental: (§4) Standard reaction mixtures (50 μl final volume) contained 25 mM cocadylate (pH 7.4), 10 mM MnCl2, 0.25% Triton X-100, 200 μM UDP-[^14C]-GalNAc (2,000 cpm/nmol) (Amersham), 200-500 μM acceptor peptides. Products were quantified by scintillation counting after chromatography on Dowex-1, octadecyl silica cartridges (Bakerbond), or HPLC (PC3.2/3 or mRPC C2/C18 SC2.1/10 Pharmacia, Smart System). […] Glycopeptides were purified on Supelclean LC-18 columns (1 ml, Supelco), and the number of GalNAc residues incorporated evaluated by MALDI-TOF mass spectrometry. The enzyme sources used were semipurified as previously described by successive sequential ion-exchange chromatographies on Amberlite (IRA95, Sigma) or DEAE Sephacel (Pharmacia), S-Sepharose Fast Flow (Pharmacia), and Mini-S™ (PC 3.2/3, Pharmacia) using the Smart System (Pharmacia) (28). Secreted GalNAc-T4 was obtained from a stably transfected CHO line (CHO/GalNA-T4/21A) (8) grown in roller bottles in HAMS F12 supplemented with 10% Fetal Bovine Serum. The experiments illustrated in FIG. 1 was performed with recombinant secreted GalNAc-T4 obtained from a stably transfected CHO line (8). Experiments illustrated in FIGS. 2 and 3 were performed with secreted GalNAc-T4 expressed in High Five cells grown in serum-free medium (8). Structural analysis of glycopeptides were performed by a combination of PFPA (pentafluoropropionic acid) hydrolysis and MALDI-TOF mass spectrometry as previously described (40). Secreted GalNAc-T7 was obtained from infected High Five™ cells grown in serum-free medium (Invitrogen) in upright roller bottles shaken 140 rpm in waterbaths at 27° C. GalNAc-T7 was not purified by Mini-S as the yields from cationic chromatography were low due to its low pI (6.4).
(§5) Galactosyl transferring activities of GalNAc-T1, -T2, and -T3, were assayed with a panel of acceptor peptides in standard reaction mixtures containing 100 μM UDP-Gal instead of UDP-GalNAc. […] Further, analysis was performed with 10 mM α-D-GalNAc-1-benzyl, αGlcNAc-benzyl, and fully occupied GalNAc-glycopeptide, GalNAC6TAP25, at 5 mM.

GalNAc-T3 = molecular target: T6, GalNAc-T3 (Homo sapiens, UniProt Q14435); assay: GalNAc-T3 transferase activities with UDP-GalNAc or UDP-Gal donor (EA2 acceptor, peptide panel); format: biochemical; conditions: peptide as acceptor substrate
T6 construct: Soluble, secreted expression constructs of human GalNAc-transferases GalNAc-T1, -T2, -T3, -T4, -T6, -T7, and -T11; made in house; host or cells: insect cells (baculovirus)
T6 sequence (Q14435 38-633 limits assumed): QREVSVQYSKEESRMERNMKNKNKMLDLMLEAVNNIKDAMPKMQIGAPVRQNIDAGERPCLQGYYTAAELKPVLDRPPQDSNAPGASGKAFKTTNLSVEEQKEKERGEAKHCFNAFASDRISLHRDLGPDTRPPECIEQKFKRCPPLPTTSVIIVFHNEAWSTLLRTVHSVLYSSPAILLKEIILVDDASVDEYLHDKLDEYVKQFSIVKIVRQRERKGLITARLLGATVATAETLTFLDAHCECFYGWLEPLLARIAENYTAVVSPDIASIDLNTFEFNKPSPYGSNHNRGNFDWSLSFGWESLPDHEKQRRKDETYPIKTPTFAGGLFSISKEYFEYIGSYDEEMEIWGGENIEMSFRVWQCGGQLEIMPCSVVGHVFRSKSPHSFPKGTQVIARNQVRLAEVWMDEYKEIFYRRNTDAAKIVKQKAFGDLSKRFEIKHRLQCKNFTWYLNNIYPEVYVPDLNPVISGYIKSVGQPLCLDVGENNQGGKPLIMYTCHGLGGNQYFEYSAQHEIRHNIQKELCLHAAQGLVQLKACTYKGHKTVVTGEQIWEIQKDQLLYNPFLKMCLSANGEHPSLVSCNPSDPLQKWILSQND
Experimental: as §4, §5

[6] = read-out: Concentration required for 50% inhibition (IC50), T2ld
[7] = read-out: Concentration required for 50% inhibition (IC50), sT4

Compound | IC50 [4, 7] | IC50 [5] | GalNAc-T2 activity with UDP-Gal by acceptor peptide (GalNAc-T2) | GalNAc-T3 activity with UDP-Gal by acceptor peptide (GalNAc-T3) | other results
O=c1ccn([C@@H]2O[C@H](COP(=O)(O)OP(=O)(O)O)[C@@H](O)[C@H]2O)c(=O)[nH]1 [UDP] | > 100 mM | > 100 mM |  |  | IC50 [1, 6]: > 100 mM; IC50 [2]: > 100 mM; IC50 ([3]; read-out: Concentration required for 50% inhibition (IC50), T4ld): > 100 mM
CC(=O)N[C@H]1[C@H](Oc2ccccc2[N+](=O)[O-])O[C@H](CO)[C@H](O)[C@@H]1O [oNPβGalNAc] |  | > 20 mM |  |  | IC50 [1]: > 12 mM; IC50 [3]: 8 mM; IC50 [4]: 1 mM
uridine diphospho-N-acetylgalactosamine [UDPαGalNAc] | 30 mM |  |  |  | IC50 [1, 6]: > 100 mM; IC50 [2]: 65 mM

Second part, led by results:

IC50 [4, 7] | IC50 [5] | GalNAc-T2 activity with UDP-Gal by acceptor peptide (GalNAc-T2) | GalNAc-T3 activity with UDP-Gal by acceptor peptide (GalNAc-T3) | Compound | other results
0.8 mM | > 20 mM |  |  | CC(=O)N[C@H]1[C@H](Oc2ccc([N+](=O)[O-])cc2)O[C@H](CO)[C@H](O)[C@@H]1O [pNPβGalNAc] | 
 |  | 1.5 nmol/min/mL | 6.8 nmol/min/mL | EA2: acceptor peptide PTTDSTTPAPTTK derived from rat submandibular gland mucin | 
 |  | 90 nmol/min/mL | 0 nmol/min/mL | Muc2: acceptor peptide PTTTPISTTTMVTPTPTPTC derived from human intestinal mucin MUC2 | 
 |  | 13 nmol/min/mL | 0.1 nmol/min/mL | Muc7: acceptor peptide Ac-CPPTPSATTPAPPSSSAPPETTAA derived from human salivary gland mucin MUC7 | 

From patent US7338932B2, “Methods of modulating functions of polypeptide GalNAc-transferases and of screening test substances to find agents herefor, pharmaceutical compositions comprising such agents and the use of such agents for preparing medicaments” (Glycozym APS, priority 2000, dated 2008)
